In PubChem BioAssay AID248 (DTP/NCI, 2004):
Several values for one entry are separate records, joined by “and”; a condition that tells them apart may be missing. Equal values may be shown once. Toxic doses and inconclusive results are not listed.

Test system: L1210 leukemia ip in BDF1 mice, survival T/C
Experiment: NCI In Vivo Anticancer Drug Screen. Data for tumor model L1210 Leukemia (intraperitoneal) in B6D2F1 (BDF1) mice
Conditions: endpoint: mean survival time, higher = longer survival
How it was run: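 In this screen, tumor-bearing mice given compound are compared to those given vehicle, and their survival values are reported as a treated-to-control quotient.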

[1] = dose: 50.0 mg/kg/injection, schedule: Q01DX001 (ip), vehicle: carboxymethylcellulose (CMC)
[2] = dose: 100.0 mg/kg/injection, schedule: Q01DX001 (ip), vehicle: carboxymethylcellulose (CMC)
[3] = dose: 400.0 mg/kg/injection, schedule: Q01DX001 (ip), vehicle: carboxymethylcellulose (CMC)
[4] = dose: 25.0 mg/kg/injection, schedule: Q01DX009 (ip), vehicle: Klucel (hydroxypropylcellulose) (HPC)
[5] = dose: 50.0 mg/kg/injection, schedule: Q01DX009 (ip), vehicle: Klucel (hydroxypropylcellulose) (HPC)
[6] = dose: 100.0 mg/kg/injection, schedule: Q04DX002 (ip), vehicle: Klucel (hydroxypropylcellulose) (HPC)
[7] = dose: 200.0 mg/kg/injection, schedule: Q04DX002 (ip), vehicle: Klucel (hydroxypropylcellulose) (HPC)
[8] = dose: 400.0 mg/kg/injection, schedule: Q04DX002 (ip), vehicle: Klucel (hydroxypropylcellulose) (HPC)
[9] = dose: 50.0 mg/kg/injection, schedule: Q01DX009 (ip), vehicle: saline
[10] = dose: 100.0 mg/kg/injection, schedule: Q01DX001 (ip), vehicle: saline
[11] = dose: 200.0 mg/kg/injection, schedule: Q01DX001 (ip), vehicle: saline
[12] = dose: 400.0 mg/kg/injection, schedule: Q01DX001 (ip), vehicle: saline
[13] = dose: 100.0 mg/kg/injection, schedule: Q04DX003 (ip), vehicle: saline
[14] = dose: 200.0 mg/kg/injection, schedule: Q04DX003 (ip), vehicle: saline
[15] = dose: 400.0 mg/kg/injection, schedule: Q04DX003 (ip), vehicle: saline
[16] = dose: 100.0 mg/kg/injection, schedule: Q01DX009 (ip), vehicle: Klucel (hydroxypropylcellulose) (HPC)
[17] = dose: 100.0 mg/kg/injection, schedule: Q04DX003 (ip), vehicle: Klucel (hydroxypropylcellulose) (HPC)
[18] = dose: 200.0 mg/kg/injection, schedule: Q04DX003 (ip), vehicle: Klucel (hydroxypropylcellulose) (HPC)
[19] = dose: 25.0 mg/kg/injection, schedule: Q01DX009 (ip), vehicle: saline
[20] = dose: 200.0 mg/kg/injection, schedule: Q01DX001 (ip), vehicle: carboxymethylcellulose (CMC)
[21] = dose: 100.0 mg/kg/injection, schedule: Q01DX009 (ip), vehicle: saline
[22] = dose: 200.0 mg/kg/injection, schedule: Q01DX009 (ip), vehicle: saline
[23] = dose: 200.0 mg/kg/injection, schedule: Q01DX009 (ip), vehicle: Klucel (hydroxypropylcellulose) (HPC)
[24] = dose: 400.0 mg/kg/injection, schedule: Q01DX009 (ip), vehicle: Klucel (hydroxypropylcellulose) (HPC)
[25] = dose: 400.0 mg/kg/injection, schedule: Q04DX003 (ip), vehicle: Klucel (hydroxypropylcellulose) (HPC)

In the case of `CCC(/C=N\NC(=O)CCCC(=O)N/N=C/C(CC)CC)CC`, the T/C [1] is reported as 90 % of control, the T/C [2] is reported as 90 % of control and the T/C [3] is reported as 90 % of control.

For `O=C(NCCBr)Nc1ccccc1`, the T/C (dose: 12.5 mg/kg/injection, schedule: Q01DX009 (ip), vehicle: Klucel (hydroxypropylcellulose) (HPC)) was 97 % of control, the T/C [4] was 108 % of control and the T/C [5] was 108 % of control. The T/C (dose: 80.0 mg/kg/injection, schedule: Q01DX009 (ip), vehicle: Klucel (hydroxypropylcellulose) (HPC)) was 103 % of control, the T/C (dose: 115.0 mg/kg/injection, schedule: Q01DX009 (ip), vehicle: Klucel (hydroxypropylcellulose) (HPC)) was 114 % of control and the T/C (dose: 170.0 mg/kg/injection, schedule: Q01DX009 (ip), vehicle: Klucel (hydroxypropylcellulose) (HPC)) was 95 % of control.

In the case of `O=C(Nc1cccc(Cl)c1Cl)C(Cl)(Cl)Cl`, the T/C [6] is reported as 100 % of control, the T/C [7] is reported as 104 % of control and the T/C [8] is reported as 88 % of control.

For `CC12OC(c3ccccc3)(C3=C1C1CCC(C1)C3(C)C)c1ccccc12` (stereo not drawn), the T/C [9] was 89 % of control, the T/C [10] was 103 % of control and the T/C [11] was 100 % of control. The T/C [12] was 112 % of control.

In the case of `CCN(CC)CCCNC1=C(Cl)C(=O)c2ccccc2C1=O`, the T/C (dose: 25.0 mg/kg/injection, schedule: Q01DX009 (ip), vehicle: saline with Tween-80) is reported as 95 % of control.

With `COC(=O)c1ccccc1NC(=O)N(c1ccccc1)c1ccccc1` the T/C [6] was 93 % of control, the T/C [7] was 97 % of control and the T/C [8] was 101 % of control.

For `CCOC(=O)NOP(=O)(N1CC1(C)C)N1CC1(C)C` (stereo not drawn), the T/C (dose: 100.0 mg/kg/injection, schedule: Q04DX002 (ip), vehicle: saline) was 207 % of control and the T/C (dose: 200.0 mg/kg/injection, schedule: Q04DX002 (ip), vehicle: saline) was 86 % of control.

In the case of `O=C1N(CCO)CNC1(c1ccccc1)c1ccccc1`, the T/C (dose: 100.0 mg/kg/injection, schedule: Q01DX001 (ip), vehicle: saline with Tween-80) is reported as 102 % of control and the T/C (dose: 200.0 mg/kg/injection, schedule: Q01DX001 (ip), vehicle: saline with Tween-80) is reported as 98 % of control.

In the case of `O=c1cc(CN(CCO)CCO)[nH]c(=O)[nH]1`, the T/C [13] is reported as 93 % of control, the T/C [14] is reported as 95 % of control and the T/C [15] is reported as 93 % of control.

`CC1(C)CNC(=O)O1` was tested, and the T/C [10] was 108 % of control, the T/C [11] was 111 % of control and the T/C [12] was 100 % of control.

With `Clc1cc(Cc2ccc(N=C/C=C/c3ccccc3)c(Cl)c2)ccc1N=C/C=C\c1ccccc1` the T/C [6] was 100 % of control, the T/C [7] was 93 % of control and the T/C [8] was 86 % of control.

`CCCCCCCCCCCCCCCCCC(=O)NCCNC(=O)CCCCCCCCCCCCCCCCC` was tested, and the T/C (dose: 12.5 mg/kg/injection, schedule: Q04DX003 (ip), vehicle: Klucel (hydroxypropylcellulose) (HPC)) was 103 % of control, the T/C [4] was 108 % of control and the T/C (dose: 25.0 mg/kg/injection, schedule: Q04DX003 (ip), vehicle: Klucel (hydroxypropylcellulose) (HPC)) was 107 % of control. For the same molecule, the T/C [5] was 104 % of control, the T/C (dose: 50.0 mg/kg/injection, schedule: Q04DX003 (ip), vehicle: Klucel (hydroxypropylcellulose) (HPC)) was 104 % of control and the T/C [16] was 104 % of control. For the same molecule, the T/C [17] was 90 % of control, the T/C (dose: 150.0 mg/kg/injection, schedule: Q01DX009 (ip), vehicle: Klucel (hydroxypropylcellulose) (HPC)) was 88 % of control and the T/C [18] was 96 % of control.

`CN(C)/N=N/c1ncn[nH]1` was tested, and the T/C (dose: 3.0 mg/kg/injection, schedule: Q01DX009 (ip), vehicle: saline) was 117 % of control, the T/C (dose: 6.0 mg/kg/injection, schedule: Q01DX009 (ip), vehicle: saline) was 114 % of control and the T/C (dose: 12.5 mg/kg/injection, schedule: Q01DX001 (ip), vehicle: saline) was 104 % of control. The T/C (dose: 12.5 mg/kg/injection, schedule: Q01DX009 (ip), vehicle: saline) was 151 % of control, the T/C (dose: 12.5 mg/kg/injection, schedule: Q04DX003 (ip), vehicle: saline) was 120 % of control and the T/C (dose: 22.0 mg/kg/injection, schedule: Q04DX003 (ip), vehicle: saline) was 123 % of control. For the same molecule, the T/C (dose: 25.0 mg/kg/injection, schedule: Q01DX001 (ip), vehicle: saline) was 108 % of control, the T/C [19] was 203 % of control and the T/C (dose: 50.0 mg/kg/injection, schedule: Q01DX001 (ip), vehicle: saline) was 116 % of control. The T/C [9] was 115 % of control, the T/C [11] was 155 % of control and the T/C [12] was 91 % of control.

In the case of `O=P(O)(O)Cc1cccc2ccccc12`, the T/C [17] is reported as 92 % of control, the T/C (dose: 100.0 mg/kg/injection, schedule: Q04DX003 (ip), vehicle: saline with Tween-80) is reported as 96 % of control and the T/C [18] is reported as 89 % of control. The T/C (dose: 200.0 mg/kg/injection, schedule: Q04DX003 (ip), vehicle: saline with Tween-80) was 96 % of control and the T/C (dose: 400.0 mg/kg/injection, schedule: Q04DX003 (ip), vehicle: saline with Tween-80) was 96 % of control.

For `CSc1ncnc2c1ncn2/N=C/c1ccccc1`, the T/C [2] was 96 % of control, the T/C [20] was 95 % of control and the T/C [3] was 96 % of control.

With `C=CC[Se]CC=C` the T/C [17] was 106 % of control and the T/C [18] was 121 % of control.

`CC1(C)CC(=O)c2ccccc21` was tested, and the T/C [19] was 101 % of control, the T/C [9] was 94 % of control and 109 % of control and the T/C [21] was 101 % of control and 102 % of control. The T/C [13] was 100 % of control, the T/C [22] was 104 % of control and the T/C [14] was 96 % of control. For the same molecule, the T/C [15] was 102 % of control.

With `C[CH2][Pb]([CH2]C)([CH2]C)[O]S(=O)(=O)c1ccc(C)cc1` the T/C (dose: 1.56 mg/kg/injection, schedule: Q01DX009 (ip), vehicle: saline with Tween-80) was 95 % of control and the T/C (dose: 3.13 mg/kg/injection, schedule: Q01DX009 (ip), vehicle: saline with Tween-80) was 96 % of control.

For `COc1cc(C(C)=O)ccc1O`, the T/C [6] was 99 % of control, the T/C [7] was 89 % of control and the T/C [8] was 89 % of control.

In the case of `O=C(Nc1cccc(Cl)c1)Nc1cc(C(F)(F)F)ccc1Cl`, the T/C [1] is reported as 96 % of control, the T/C [2] is reported as 100 % of control and the T/C [20] is reported as 91 % of control. For the same molecule, the T/C [3] was 100 % of control.

For `O=C1/C(=C/c2c(Cl)cccc2Cl)CCC/C1=C\c1c(Cl)cccc1Cl`, the T/C [16] was 104 % of control, the T/C [17] was 111 % of control and the T/C [23] was 108 % of control. The T/C [18] was 101 % of control, the T/C [24] was 90 % of control and the T/C [25] was 101 % of control.

With `O=C(Nc1ccccc1F)Nc1cc(Cl)ccc1Cl` the T/C (dose: 100.0 mg/kg/injection, schedule: Q01DX009 (ip), vehicle: saline sonified) was 91 % of control, the T/C [17] was 89 % of control and the T/C (dose: 200.0 mg/kg/injection, schedule: Q01DX009 (ip), vehicle: saline sonified) was 93 % of control. For the same molecule, the T/C [18] was 94 % of control, the T/C (dose: 400.0 mg/kg/injection, schedule: Q01DX009 (ip), vehicle: saline sonified) was 93 % of control and the T/C [25] was 86 % of control.

`CCN(CC)c1ccc(Sc2ccc([N+](=O)[O-])cc2[N+](=O)[O-])cc1` was tested, and the T/C [2] was 88 % of control, the T/C [20] was 92 % of control and the T/C [3] was 92 % of control.

For `Cc1c(C)c([N+](=O)[O-])c(C)c(C)c1[N+](=O)[O-]`, the T/C [16] was 91 % of control, the T/C [17] was 96 % of control and the T/C [23] was 98 % of control. For the same molecule, the T/C [18] was 100 % of control, the T/C [24] was 93 % of control and the T/C [25] was 101 % of control.

With `O=C(CCCCC(=O)N/N=C\c1ccccn1)N/N=C\c1ccccn1` the T/C [21] was 98 % of control, the T/C [13] was 96 % of control and the T/C [22] was 89 % of control. For the same molecule, the T/C [14] was 107 % of control, the T/C (dose: 400.0 mg/kg/injection, schedule: Q01DX009 (ip), vehicle: saline) was 100 % of control and the T/C [15] was 89 % of control.

For `O=C(c1ccccc1Br)N1CCN=C(c2ccccc2)C=C1c1ccccc1`, the T/C [13] was 93 % of control, the T/C [14] was 94 % of control and the T/C [15] was 100 % of control.

For `CCOc1ccccc1C1CCCCC1OS(=O)(=O)c1ccc(C)cc1` (stereo not drawn), the T/C (dose: 50.0 mg/kg/injection, schedule: Q01DX009 (ip), vehicle: acetone) was 92 % of control, the T/C (dose: 100.0 mg/kg/injection, schedule: Q01DX009 (ip), vehicle: acetone) was 94 % of control and 92 % of control and the T/C (dose: 200.0 mg/kg/injection, schedule: Q01DX009 (ip), vehicle: acetone) was 105 % of control and 90 % of control.
